In one assay the test system is Candida rugosa lipase. The settings on record: read-out: IC50 against lipase; positive control; ref Chupeerach et al., 2022[35]; cited from earlier work.
For a further assay, the target named is T1, rabbit lung ACE (Oryctolagus cuniculus, UniProt P12822).
T1 sequence (P12822 34-1310): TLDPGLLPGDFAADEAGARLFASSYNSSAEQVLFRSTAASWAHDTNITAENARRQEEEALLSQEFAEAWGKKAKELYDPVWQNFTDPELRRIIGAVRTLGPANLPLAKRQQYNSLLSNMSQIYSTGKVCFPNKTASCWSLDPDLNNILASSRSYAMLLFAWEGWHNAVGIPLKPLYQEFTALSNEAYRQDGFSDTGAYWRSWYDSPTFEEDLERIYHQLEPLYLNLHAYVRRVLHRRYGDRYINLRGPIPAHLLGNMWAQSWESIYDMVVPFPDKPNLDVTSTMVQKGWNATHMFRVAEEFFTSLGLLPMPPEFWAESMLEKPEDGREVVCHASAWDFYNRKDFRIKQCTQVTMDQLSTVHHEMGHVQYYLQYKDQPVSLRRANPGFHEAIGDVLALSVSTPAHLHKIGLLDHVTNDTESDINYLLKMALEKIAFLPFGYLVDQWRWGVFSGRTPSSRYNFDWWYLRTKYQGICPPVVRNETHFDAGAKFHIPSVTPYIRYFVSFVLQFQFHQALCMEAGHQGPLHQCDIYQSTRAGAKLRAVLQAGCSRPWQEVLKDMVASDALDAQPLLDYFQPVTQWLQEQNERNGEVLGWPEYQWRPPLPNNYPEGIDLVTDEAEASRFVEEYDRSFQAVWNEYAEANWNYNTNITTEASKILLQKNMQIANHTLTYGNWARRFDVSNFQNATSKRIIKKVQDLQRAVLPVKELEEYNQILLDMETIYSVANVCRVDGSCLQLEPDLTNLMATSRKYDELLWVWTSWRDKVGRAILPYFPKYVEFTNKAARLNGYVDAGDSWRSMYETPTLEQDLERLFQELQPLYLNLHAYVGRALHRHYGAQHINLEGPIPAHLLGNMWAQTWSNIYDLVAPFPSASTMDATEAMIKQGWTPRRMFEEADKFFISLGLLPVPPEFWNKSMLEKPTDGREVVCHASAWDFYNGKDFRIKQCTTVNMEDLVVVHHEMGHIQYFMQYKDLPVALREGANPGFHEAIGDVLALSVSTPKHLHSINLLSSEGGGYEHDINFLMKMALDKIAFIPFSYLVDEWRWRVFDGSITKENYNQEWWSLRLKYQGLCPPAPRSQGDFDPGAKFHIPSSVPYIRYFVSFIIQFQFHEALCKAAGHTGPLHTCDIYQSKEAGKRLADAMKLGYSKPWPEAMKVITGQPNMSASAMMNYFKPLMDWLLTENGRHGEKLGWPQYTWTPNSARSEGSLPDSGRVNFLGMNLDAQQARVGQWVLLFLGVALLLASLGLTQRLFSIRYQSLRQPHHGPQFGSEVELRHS
The assay is described as follows: ACE inhibitory assay. In kind it is biochemical. The conditions noted are these: IC50 against ACE, positive control; performed in this study.

Consider 2 molecules from article PMC11467430 (Scientific Reports, 2024).

With `CCCCCCCCCCC[C@@H](C[C@@H]1OC(=O)[C@H]1CCCCCC)OC(=O)[C@H](CC(C)C)NC=O` [Orlistat, orlistat], in the assay on Candida rugosa lipase, the IC50 is 7.94 µM. Molecule `NCCCC[C@H](N[C@@H](CCc1ccccc1)C(=O)O)C(=O)N1CCC[C@H]1C(=O)O` [Lisinopril, lisinopril] displayed an IC50 against rabbit lung ACE of 0.00179 µM.

As a reminder, the IC50 is the concentration at which inhibition is half-maximal.
